Patent US10851073B2, “Protein tyrosine phosphatase inhibitors and methods of use thereof” (Calico Life Sciences LLC, priority 2019, dated 2020)

Tests used:
[1] = target: T1, His tagged full-length PTPN1 protein (Homo sapiens, UniProt P18031); assay: Mobility shift assay (MSA) used to determine potency of PTPN1 inhibitors; assay type: biochemical; settings: enzyme 0.5 nM, substrate 2 μM
T1 construct: made in house
T1 sequence (P18031 with tags, fused parts or gaps): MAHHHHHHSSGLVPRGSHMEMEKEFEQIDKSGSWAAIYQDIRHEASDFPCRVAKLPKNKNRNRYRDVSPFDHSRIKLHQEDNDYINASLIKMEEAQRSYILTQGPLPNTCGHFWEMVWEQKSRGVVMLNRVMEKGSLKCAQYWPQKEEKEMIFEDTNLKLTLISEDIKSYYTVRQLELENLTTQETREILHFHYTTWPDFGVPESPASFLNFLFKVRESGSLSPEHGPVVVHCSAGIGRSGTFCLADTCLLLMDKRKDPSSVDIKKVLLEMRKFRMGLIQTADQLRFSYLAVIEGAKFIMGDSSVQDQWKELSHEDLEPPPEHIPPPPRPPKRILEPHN
In short: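 Full-length His-tagged human PTPN1 (0.5 nM) was preincubated 10 min at room temperature with compound (12-point, 1:3 dilution) in HEPES pH 7.5 buffer with EGTA, EDTA, Tween 20 and DTT. A 2 μM fluorescent phospho-insulin receptor peptide was then added for 10 min before quench. Mobility-shift % conversion gave % inhibition and IC50.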

[2] = target: T2, His tagged PTPN2 (TC45) protein (Homo sapiens, UniProt P17706); assay: Mobility shift assay used to determine potency of PTPN2 inhibitors; assay type: biochemical; settings: enzyme 0.5 nM, substrate 2 μM; read-out: PTPN2 MSA IC50
T2 construct: made in house
T2 sequence (P17706 with tags, fused parts or gaps isoform P17706-2): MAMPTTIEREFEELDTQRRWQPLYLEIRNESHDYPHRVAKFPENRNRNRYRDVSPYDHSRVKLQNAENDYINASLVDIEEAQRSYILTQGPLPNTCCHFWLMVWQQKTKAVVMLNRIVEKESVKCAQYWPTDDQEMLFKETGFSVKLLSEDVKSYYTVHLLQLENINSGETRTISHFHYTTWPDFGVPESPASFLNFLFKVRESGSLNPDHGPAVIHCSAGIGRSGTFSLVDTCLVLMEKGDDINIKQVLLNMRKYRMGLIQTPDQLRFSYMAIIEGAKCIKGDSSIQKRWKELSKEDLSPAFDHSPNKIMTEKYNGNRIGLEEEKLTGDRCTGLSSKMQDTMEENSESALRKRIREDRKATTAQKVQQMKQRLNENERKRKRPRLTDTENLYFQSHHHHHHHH
In short: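 Enzyme (0.5 nM) preincubated with compound (12-point, 1:3 dilution) 10 min at room temperature in 50 mM HEPES pH 7.5, 1 mM EGTA, 10 mM EDTA, 0.01% Tween 20, 2 mM DTT; OG488-labelled phospho-insulin-receptor peptide substrate (2 μM) added for 10 min, then quenched. Microfluidic mobility shift (ex 488/em 530 nm) gave % conversion; IC50 from % inhibition.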

[3] = tested on: B16F10 mouse melanoma cells; assay: B16F10 IFNγ-induced cellular growth inhibition assay; assay type: cell-based; settings: B16-F10, with 0.5 ng/mL IFNγ, read-out: B16F10 GI IC50
In short: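 B16F10 cells grown in DMEM+10% FBS, with or without 0.5 ng/mL final mouse IFNγ, and dosed in triplicate at 100 μM to 0.001 μM final (0.1% DMSO). Confluence imaged every 6 h for 5 days; percent growth inhibition versus DMSO/with-IFNγ control taken once DMSO/no-IFNγ wells exceeded 95% confluence, giving IC50.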

Compound | IC50 [1] | IC50 [2] | IC50 [3]
CC(C)CCN[C@H]1CCc2cc(O)c(N3CC(=O)NS3(=O)=O)c(F)c2C1 (single isomer, unassigned) [Compound 117] | 10 to 100 nM | 10 to 100 nM | 1000 to 10000 nM
O=C1CN(c2c(O)cc3c(c2F)C[C@@H](NCCC2CC2)CC3)S(=O)(=O)N1 (single isomer, unassigned) [Compound 134] | 10 to 100 nM | 10 to 100 nM | 1000 to 10000 nM
O=C1CN(c2c(O)cc3c(c2F)C[C@@H]([C@@H]2CCNC2)CC3)S(=O)(=O)N1 (single isomer, unassigned) [Compound 136, 5-{(7RS)-1-fluoro-3-hydroxy-7-[(3RS)-pyrrolidin-3-yl]-5,6,7,8-tetrahydronaphthalen-2-yl}-1λ^6,2,5-thiadiazolidine-1,1,3-trione] | 10 to 100 nM | 10 to 100 nM | > 100000 nM
O=C1CN(c2c(O)cc3c(c2F)C[C@@H]([C@@H]2CCN(S(=O)(=O)C4CC4)C2)CC3)S(=O)(=O)N1 (single isomer, unassigned) [Compound 137, 5-{(7RS)-7-[(3RS)-1-(cyclopropanesulfonyl)pyrrolidin-3-yl]-1-fluoro-3-hydroxy-5,6,7,8-tetrahydronaphthalen-2-yl}-1λ^6,2,5-thiadiazolidine-1,1,3-trione] | 1 to 10 nM | < 1 nM | 10000 to 100000 nM
O=C1CN(c2c(O)cc3c(c2F)C[C@@H]([C@H]2CCN(S(=O)(=O)C4CC4)C2)CC3)S(=O)(=O)N1 (single isomer, unassigned) [Compound 139, 5-{(7RS)-7-[(3SR)-1-(cyclopropanesulfonyl)pyrrolidin-3-yl]-1-fluoro-3-hydroxy-5,6,7,8-tetrahydronaphthalen-2-yl}-1λ^6,2,5-thiadiazolidine-1,1,3-trione] | 10 to 100 nM | 1 to 10 nM | 10000 to 100000 nM
CC(C)CCNC[C@H]1Cc2cc(O)c(N3CC(=O)NS3(=O)=O)c(F)c2C1 (single isomer, unassigned) [Compound 292] | 10 to 100 nM | 10 to 100 nM | 1000 to 10000 nM
CC(C)(CO)CCN[C@@H]1CCc2cc(O)c(N3CC(=O)NS3(=O)=O)c(F)c2C1 (single isomer, unassigned) [Compound 308] | 1 to 10 nM | 1 to 10 nM | < 1000 nM
CC(C)CCNC1CCc2cc(O)c(N3CC(=O)NS3(=O)=O)c(F)c2C1 (stereo not drawn) [Compound 102, 5-{1-fluoro-3-hydroxy-7-[(3-methylbutyl)amino]-5,6,7,8-tetrahydronaphthalen-2-yl}-1λ^6,2,5-thiadiazolidine-1,1,3-trione] | 1 to 10 nM | < 1 nM | < 1000 nM
COCCOC1CCc2cc(O)c(N3CC(=O)NS3(=O)=O)c(F)c2C1 (stereo not drawn) [Compound 106, 5-[1-fluoro-3-hydroxy-7-(2-methoxyethoxy)-5,6,7,8-tetrahydronaphthalen-2-yl]-1λ^6,2,5-thiadiazolidine-1,1,3-trione] | 10 to 100 nM | 10 to 100 nM | 10000 to 100000 nM
O=C1CN(c2c(O)cc3c(c2F)CC(OCC2CC2)CC3)S(=O)(=O)N1 (stereo not drawn) [Compound 107, 5-[7-(cyclopropylmethoxy)-1-fluoro-3-hydroxy-5,6,7,8-tetrahydronaphthalen-2-yl]-1λ^6,2,5-thiadiazolidine-1,1,3-trione] | 10 to 100 nM | 10 to 100 nM | 10000 to 100000 nM
O=C1CN(c2c(O)cc3c(c2F)CC(NCCC(F)(F)F)CC3)S(=O)(=O)N1 (stereo not drawn) [Compound 116, 5-{1-fluoro-3-hydroxy-7-[(3,3,3-trifluoropropyl)amino]-5,6,7,8-tetrahydronaphthalen-2-yl}-1λ^6,2,5-thiadiazolidine-1,1,3-trione] | 10 to 100 nM | 10 to 100 nM | 1000 to 10000 nM
O=C1CN(c2c(O)cc3c(c2F)CC(OCC2CC(F)(F)C2)CC3)S(=O)(=O)N1 (stereo not drawn) [Compound 119, 5-{7-[(3,3-difluorocyclobutyl)methoxy]-1-fluoro-3-hydroxy-5,6,7,8-tetrahydronaphthalen-2-yl}-1λ^6,2,5-thiadiazolidine-1,1,3-trione] | 1 to 10 nM | 1 to 10 nM | 1000 to 10000 nM
